Test results as given in ChEMBL document CHEMBL1139782, “Dual acting antioxidant A1 adenosine receptor agonists” (Bioorg Med Chem Lett, 2007).
Active and inactive are the calls of the source. The rule behind the calls is not given here.

What was measured:
[1] = target: T1, Adenosine receptor A1 (Rattus norvegicus) (UniProt P25099); assay: Reversal of agonistic activity at adenosine A1 receptor in embryonic rat H9C2 cell model of ischemia assessed as reduction of cardioprotective effect in presence of DPCPX A1 antagonist; type: functional, tissue-based; settings: Heart
T1 sequence (whole entry): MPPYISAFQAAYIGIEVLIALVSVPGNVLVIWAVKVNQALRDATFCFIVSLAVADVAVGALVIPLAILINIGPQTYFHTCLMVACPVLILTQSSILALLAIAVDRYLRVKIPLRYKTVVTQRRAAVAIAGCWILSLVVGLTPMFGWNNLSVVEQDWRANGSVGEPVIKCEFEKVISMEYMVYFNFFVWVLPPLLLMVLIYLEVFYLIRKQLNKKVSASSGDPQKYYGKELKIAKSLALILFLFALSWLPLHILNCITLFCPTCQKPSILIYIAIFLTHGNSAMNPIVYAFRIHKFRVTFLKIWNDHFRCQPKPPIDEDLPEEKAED

Adenosine receptor A2b = target: T2, Adenosine receptor A2b (Homo sapiens, UniProt P29275); assay: Binding affinity to adenosine A2B receptor
T2 sequence (P29275 whole entry): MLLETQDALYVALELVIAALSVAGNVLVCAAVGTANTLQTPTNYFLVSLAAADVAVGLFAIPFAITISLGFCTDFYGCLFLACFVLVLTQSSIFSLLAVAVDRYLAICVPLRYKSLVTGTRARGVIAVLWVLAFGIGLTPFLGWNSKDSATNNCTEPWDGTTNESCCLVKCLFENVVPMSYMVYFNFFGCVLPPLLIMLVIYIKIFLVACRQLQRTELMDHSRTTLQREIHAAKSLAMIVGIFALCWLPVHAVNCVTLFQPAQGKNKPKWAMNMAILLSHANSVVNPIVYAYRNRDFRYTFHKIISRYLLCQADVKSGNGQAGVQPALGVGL

[2] = target: Adenosine receptors; A1 & A3 (Homo sapiens) (UniProt P30542+P0DMS8); assay: Selectivity for adenosine A1 receptor over adenosine A3 receptor
Adenosine receptor A2a = Adenosine receptor A2a (Homo sapiens, UniProt P29274); assay: Binding affinity to adenosine A2A receptor
Adenosine receptor A2a, sequence (P29274 whole entry): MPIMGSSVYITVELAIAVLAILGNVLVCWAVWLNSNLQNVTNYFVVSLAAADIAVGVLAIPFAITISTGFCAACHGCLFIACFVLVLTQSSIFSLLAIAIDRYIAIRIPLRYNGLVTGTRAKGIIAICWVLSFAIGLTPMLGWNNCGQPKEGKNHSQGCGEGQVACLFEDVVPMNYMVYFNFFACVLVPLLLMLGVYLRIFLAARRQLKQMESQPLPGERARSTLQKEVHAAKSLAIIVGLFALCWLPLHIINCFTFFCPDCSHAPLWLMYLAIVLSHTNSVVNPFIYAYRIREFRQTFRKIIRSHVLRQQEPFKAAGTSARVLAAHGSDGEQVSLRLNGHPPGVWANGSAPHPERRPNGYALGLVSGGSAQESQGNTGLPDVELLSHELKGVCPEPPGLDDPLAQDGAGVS

Adenosine receptor A1 = target: T3, Adenosine receptor A1 (Homo sapiens, UniProt P30542); assay: Binding affinity to adenosine A1 receptor
T3 sequence (P30542 whole entry): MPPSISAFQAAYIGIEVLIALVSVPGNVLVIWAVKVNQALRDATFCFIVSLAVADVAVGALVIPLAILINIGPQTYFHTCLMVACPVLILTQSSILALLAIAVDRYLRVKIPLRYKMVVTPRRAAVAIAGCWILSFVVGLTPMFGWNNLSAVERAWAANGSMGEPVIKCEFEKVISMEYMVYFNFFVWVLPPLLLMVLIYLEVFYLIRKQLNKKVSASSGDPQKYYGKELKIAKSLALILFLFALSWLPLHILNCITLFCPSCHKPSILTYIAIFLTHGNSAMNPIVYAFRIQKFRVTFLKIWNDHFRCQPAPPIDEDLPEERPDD

Adenosine receptor A3 = target: T4, Adenosine receptor A3 (Homo sapiens, UniProt P0DMS8); assay: Binding affinity to adenosine A3 receptor
T4 sequence (P0DMS8 whole entry): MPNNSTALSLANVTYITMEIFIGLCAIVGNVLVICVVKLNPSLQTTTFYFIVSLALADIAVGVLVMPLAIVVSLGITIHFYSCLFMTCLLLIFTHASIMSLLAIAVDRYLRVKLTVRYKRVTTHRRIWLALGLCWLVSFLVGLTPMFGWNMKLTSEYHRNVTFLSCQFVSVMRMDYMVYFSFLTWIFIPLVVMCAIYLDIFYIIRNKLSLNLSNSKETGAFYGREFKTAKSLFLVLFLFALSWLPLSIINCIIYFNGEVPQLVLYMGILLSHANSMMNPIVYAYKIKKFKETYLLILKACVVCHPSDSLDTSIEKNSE

[3] = target: T1, Adenosine receptor A1 (Rattus norvegicus); assay: Agonist activity at adenosine A1 receptor in embryonic rat H9C2 cell model of ischemia assessed as reduction of cell death at 10 nM; type: functional, cell-based; set-up: scale not given: the % may be the effect or the level left

SMILES	Activity [1]	Ki (Adenosine receptor A2b) [µM]	Ratio Ki [2]	Ki (Adenosine receptor A2a) [µM]	Ki (Adenosine receptor A1) [µM]	Ki (Adenosine receptor A3) [µM]	Activity [3] [%]
CC1(C)c2ccc(C(=O)NCCc3ccc(Nc4ncnc5c4ncn5[C@@H]4O[C@H](CO)[C@@H](O)[C@H]4O)cc3)cc2C(C)(C)N1[O]	Active	1.45	3	> 10	0.007	0.23	54.7
CC1(C)CC(Nc2ncnc3c2ncn3[C@@H]2O[C@H](CO)[C@@H](O)[C@H]2O)CC(C)(C)N1		> 10		> 10	1.58	25	
OC[C@H]1O[C@@H](n2cnc3c(NC4CCCC4)ncnc32)[C@H](O)[C@@H]1O	Active						86.2
CC(C)(C)c1cc(C(=O)NCCCCCCNc2ncnc3c2ncn3[C@@H]2O[C@H](CO)[C@@H](O)[C@H]2O)cc(C(C)(C)C)c1O		> 10		> 10	0.04	0.014	
CC1(C)NC(C)(C)c2cc(Nc3ncnc4c3ncn4[C@@H]3O[C@H](CO)[C@@H](O)[C@H]3O)ccc21		> 10		> 10	0.29	0.28	
CC1(C)c2ccc(C(=O)NCCCCCCNc3ncnc4c3ncn4[C@@H]3O[C@H](CO)[C@@H](O)[C@H]3O)cc2C(C)(C)N1[O]		> 10		> 10	0.015	0.089	
CC1(C)CC(Nc2ncnc3c2ncn3[C@@H]2O[C@H](CO)[C@@H](O)[C@H]2O)CC(C)(C)N1[O]		> 10		> 10	0.05	8.56	
CC1(C)CC(CNc2ncnc3c2ncn3[C@@H]2O[C@H](CO)[C@@H](O)[C@H]2O)C(C)(C)N1[O] (stereo not given in full)	Active	> 10		> 10	0.05	21.2	84.8
CC1(C)c2ccc(Nc3ncnc4c3ncn4[C@@H]3O[C@H](CO)[C@@H](O)[C@H]3O)cc2C(C)(C)N1[O]		> 10		> 10	0.1	0.79	
CC(C)(C)c1cc(C(=O)NCCc2ccc(Nc3ncnc4c3ncn4[C@@H]3O[C@H](CO)[C@@H](O)[C@H]3O)cc2)cc(C(C)(C)C)c1O	Active	8.58		> 10	0.032	0.084	73.2
